# From patent US20180008587A1, “THIOHYDANTOIN ANDROGEN RECEPTOR ANTAGONISTS FOR THE TREATMENT OF CANCER” (Jaressen Pharmaceutica NV, priority 2016, published 2018)
# Residue numbers refer to the chain shown, from its start. Like-named read-outs stand apart in the source and are kept apart here.
# Key:
# Assay type in all cases: cell-based
# [1] = target: T1, wild-type Androgen Receptor (AR-wt) (Homo sapiens, UniProt P10275); test: LNCaP-AR-wt AG reporter assay (ARE firefly luciferase, agonist mode); settings: for Emax: read-out: LNCaP-AR-wt AG MAX % Stim
# T1 construct: expressed in transfected cells; host or cells: LNCaP (LNCaP AR (cs))
# T1 sequence (P10275 1-920): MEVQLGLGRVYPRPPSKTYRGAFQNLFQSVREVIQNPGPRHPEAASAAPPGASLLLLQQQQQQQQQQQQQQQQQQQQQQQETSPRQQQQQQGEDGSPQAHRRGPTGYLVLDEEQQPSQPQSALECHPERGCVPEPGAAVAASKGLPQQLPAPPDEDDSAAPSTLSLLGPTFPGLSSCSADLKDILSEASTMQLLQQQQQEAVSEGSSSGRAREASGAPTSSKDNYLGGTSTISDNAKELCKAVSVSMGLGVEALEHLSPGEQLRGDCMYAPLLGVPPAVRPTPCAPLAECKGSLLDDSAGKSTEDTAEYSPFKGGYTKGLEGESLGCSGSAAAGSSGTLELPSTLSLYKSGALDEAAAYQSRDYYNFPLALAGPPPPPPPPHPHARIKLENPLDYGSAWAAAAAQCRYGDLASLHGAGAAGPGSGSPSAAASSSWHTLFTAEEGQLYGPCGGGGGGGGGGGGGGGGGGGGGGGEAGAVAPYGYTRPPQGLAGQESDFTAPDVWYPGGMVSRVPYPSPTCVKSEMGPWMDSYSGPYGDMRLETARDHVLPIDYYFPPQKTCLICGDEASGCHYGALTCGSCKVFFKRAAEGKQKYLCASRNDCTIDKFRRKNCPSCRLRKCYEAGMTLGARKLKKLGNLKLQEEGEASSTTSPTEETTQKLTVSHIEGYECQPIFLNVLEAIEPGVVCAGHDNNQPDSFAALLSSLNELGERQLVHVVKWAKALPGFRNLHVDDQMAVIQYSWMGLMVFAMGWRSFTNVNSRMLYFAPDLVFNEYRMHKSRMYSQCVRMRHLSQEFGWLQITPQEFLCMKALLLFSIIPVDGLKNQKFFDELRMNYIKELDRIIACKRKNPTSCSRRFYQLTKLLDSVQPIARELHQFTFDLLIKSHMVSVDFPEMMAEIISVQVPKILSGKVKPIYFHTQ
# Procedure, shortened: (§1)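 LNCaP stable pooled lines expressing ARE-firefly luciferase, in charcoal-stripped serum medium, were exposed to compounds; antagonist mode used agonist at 400 pM (WT) or 600 pM (F876L).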
# [2] = target: T2, F876L mutant Androgen Receptor (AR-F876L) (Homo sapiens, UniProt P10275, F877L); test: LNCaP-AR-F876L ANT reporter assay (ARE firefly luciferase, antagonist mode); settings: for Emax: read-out: LNCaP-AR-F876L ANT MAX % Inh; for IC50: read-out: LNCaP-AR-F876L ANT pIC50 (converted)
# T2 construct: expressed in transfected cells; host or cells: LNCaP (LNCaP F876L)
# T2 sequence (P10275 1-920 F877L): T1 sequence (P10275 1-920) with F877L
# Procedure, shortened: (§2)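 LNCaP cells stably expressing wild-type or F876L AR (puromycin-selected pooled populations) were cultured in charcoal-stripped serum medium. In antagonist mode, agonist challenge was 400 pM for wild-type and 600 pM for F876L.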
# [3] = target: T2, F876L mutant Androgen Receptor (AR-F876L); test: LNCaP-AR-F876L AG reporter assay (ARE firefly luciferase, agonist mode); settings: for Emax: read-out: LNCaP-AR-F876L AG MAX % Stim
# Procedure, shortened: as §1
# [4] = target: T1, wild-type Androgen Receptor (AR-wt); test: LNCaP-AR-wt ANT reporter assay (ARE firefly luciferase, antagonist mode); settings: for IC50: antagonist mode, 400 pM R-1881 challenge, −Log10(IC50 [Molar]), read-out: LNCaP-AR-wt ANT pIC50 (converted); for Emax: read-out: LNCaP-AR-wt ANT MAX % Inh
# Procedure, shortened: as §2
# [5] = agonist mode, −Log10(EC50 [Molar]), read-out: LNCaP-AR-wt AG pEC50 (converted)
# [6] = maximum % stimulation (agonist response) over tested concentration range
# [7] = maximum % inhibition of R1881 control response over tested concentration range
# [8] = agonist mode, −Log10(EC50 [Molar]), read-out: LNCaP-AR-F876L AG pEC50 (converted)
SMILES,"EC50 [1, 5]","Emax [1, 6]","Emax [2, 7]",IC50 [2],"EC50 [3, 8]","Emax [3, 6]",IC50 [4],"Emax [4, 7]",EC50 [1],Emax [1],Emax [2],EC50 [3],Emax [3],Emax [4]
"N#Cc1ncc(N2C(=O)C3(CCC3)N(c3cccc(CO)c3)C2=S)cc1C(F)(F)F [Cpd 81, 5-[8-[3-(hydroxymethyl)phenyl]-5-oxo-7-thioxo-6,8-diazaspiro[3.4]octan-6-yl]-3-(trifluoromethyl)pyridine-2-carbonitrile]",–,–,–,0.776 µM,–,–,0.708 µM,–,> 15.1 µM,0.7%,100%,> 15.1 µM,1.2%,95.9%
"CCCNC(=O)c1ccc(N2C(=S)N(c3cnc(C#N)c(C(F)(F)F)c3)C(=O)C23CCC3)cc1F [Cpd 68, 4-[6-[6-cyano-5-(trifluoromethyl)-3-pyridyl]-5-oxo-7-thioxo-6,8-diazaspiro[3.4]octan-8-yl]-2-fluoro-N-propyl-benzamide]",–,–,–,0.427 µM,–,–,0.589 µM,–,> 15.1 µM,0.2%,98%,> 15.1 µM,0.9%,96.7%
"Cc1cc(N2C(=O)C3(CCC3)N(c3ccc(OC4CCS(=O)(=O)CC4)cc3)C2=S)cnc1C#N [Cpd 6, 5-[8-[4-(1,1-dioxothian-4-yl)oxyphenyl]-5-oxo-7-thioxo-6,8-diazaspiro[3.4]octan-6-yl]-3-methyl-pyridine-2-carbonitrile]",> 15.1 µM,0.4%,99.5%,0.178 µM,> 15.1 µM,0%,0.646 µM,100%,–,–,–,–,–,–
"N#Cc1ncc(N2C(=O)C3(CCC3)N(c3ccc(Oc4ccccn4)cc3)C2=S)cc1C(F)(F)F [Cpd 103, 5-[5-oxo-8-[4-(2-pyridyloxy)phenyl]-7-thioxo-6,8-diazaspiro[3.4]octan-6-yl]-3-(trifluoromethyl)pyridine-2-carbonitrile]",–,–,–,0.107 µM,–,–,0.562 µM,–,> 15.1 µM,4%,64.9%,> 15.1 µM,2%,29%
"N#Cc1ncc(N2C(=O)C3(CCC3)N(c3ccc(C(=O)NCc4ccccn4)c(F)c3)C2=S)cc1C(F)(F)F [Cpd 44, 4-[6-[6-cyano-5-(trifluoromethyl)-3-pyridyl]-5-oxo-7-thioxo-6,8-diazaspiro[3.4]octan-8-yl]-2-fluoro-N-(2-pyridylmethyl)benzamide]",–,–,–,0.178 µM,–,–,0.195 µM,–,> 15.1 µM,-0.2%,101%,> 15.1 µM,0%,103%
"Cc1ccc(N2C(=S)N(c3cnc(C#N)c(C(F)(F)F)c3)C(=O)C2(C)C)cc1 [Cpd 110, 5-[4,4-dimethyl-5-oxo-3-(p-tolyl)-2-thioxo-imidazolidin-1-yl]-3-(trifluoromethyl)pyridine-2-carbonitrile]",> 15.1 µM,1.3%,100%,0.145 µM,> 15.1 µM,2.6%,0.195 µM,100%,–,–,–,–,–,–
"N#Cc1ncc(N2C(=O)C3(CCC3)N(c3ccc(C(=O)NCc4ccccc4)c(F)c3)C2=S)cc1C(F)(F)F [Cpd 36, N-benzyl-4-[6-[6-cyano-5-(trifluoromethyl)-3-pyridyl]-5-oxo-7-thioxo-6,8-diazaspiro[3.4]octan-8-yl]-2-fluoro-benzamide]",–,–,–,0.851 µM,–,–,1.48 µM,–,> 15.1 µM,0.9%,91.3%,> 15.1 µM,0.3%,96.1%

# Further lines, with some results ahead:
"EC50 [1, 5]","Emax [1, 6]","Emax [2, 7]",IC50 [2],"EC50 [3, 8]","Emax [3, 6]",IC50 [4],"Emax [4, 7]",SMILES,EC50 [1],Emax [1],Emax [2],EC50 [3],Emax [3],Emax [4]
> 15.1 µM,-0.2%,98.6%,0.389 µM,> 15.1 µM,0.1%,0.724 µM,100%,"N#Cc1ncc(N2C(=O)C3(CCC3)N(c3ccc(C(=O)NCC4CCCC4)c(F)c3)C2=S)cc1C(F)(F)F [Cpd 21, 4-[6-[6-cyano-5-(trifluoromethyl)-3-pyridyl]-5-oxo-7-thioxo-6,8-diazaspiro[3.4]octan-8-yl]-N-(cyclopentylmethyl)-2-fluoro-benzamide]",–,–,–,–,–,–
> 15.1 µM,0.1%,98.9%,0.219 µM,> 15.1 µM,0.5%,0.38 µM,101%,"N#Cc1ncc(N2C(=O)C3(CCC3)N(c3ccc(C(=O)NCc4cnccn4)c(F)c3)C2=S)cc1C(F)(F)F [Cpd 54, 4-[6-[6-cyano-5-(trifluoromethyl)-3-pyridyl]-5-oxo-7-thioxo-6,8-diazaspiro[3.4]octan-8-yl]-2-fluoro-N-(pyrazin-2-ylmethyl)benzamide]",–,–,–,–,–,–
> 15.1 µM,0.5%,97.8%,0.832 µM,> 15.1 µM,0.4%,0.851 µM,99.7%,"N#Cc1ncc(N2C(=O)C3(CCC3)N(c3ccc(OCCc4ncccn4)c(F)c3)C2=S)cc1C(F)(F)F [Cpd 56, 5-[8-[3-fluoro-4-(2-pyrimidin-2-ylethoxy)phenyl]-5-oxo-7-thioxo-6,8-diazaspiro[3.4]octan-6-yl]-3-(trifluoromethyl)pyridine-2-carbonitrile]",–,–,–,–,–,–
> 15.1 µM,6%,99.2%,0.631 µM,> 15.1 µM,1.5%,0.724 µM,95%,"COc1cc(F)ccc1N1C(=S)N(c2cnc(C#N)c(C(F)(F)F)c2)C(=O)C12CCC2 [Cpd 94, 5-[8-(4-fluoro-2-methoxy-phenyl)-5-oxo-7-thioxo-6,8-diazaspiro[3.4]octan-6-yl]-3-(trifluoromethyl)pyridine-2-carbonitrile]",–,–,–,–,–,–
> 15.1 µM,1.3%,95.4%,0.977 µM,> 15.1 µM,0.2%,1.32 µM,90%,"N#Cc1ncc(N2C(=O)C3(CCC3)N(c3cccc(Oc4ccccc4)c3)C2=S)cc1C(F)(F)F [Cpd 20, 5-[5-oxo-8-(3-phenoxyphenyl)-7-thioxo-6,8-diazaspiro[3.4]octan-6-yl]-3-(trifluoromethyl)pyridine-2-carbonitrile]",–,–,–,–,–,–
